Source: patent US8753841B2, “Enzyme that catalyzes a peptide-forming reaction from a carboxy component and an amine component, microbe producing the same, and a method of producing a dipeptide using the enzyme or microbe” (Ajinomoto Co., Inc., priority 2002, dated 2014)

Assays:
[1] = tested on: peptide-forming enzyme from Empedobacter brevis strain FERM BP-8113; test: Substrate specificity of enzyme (peptide production from carboxy and amine components); assay type: biochemical; set-up: key to Formed peptide (mM): +: those peptides for which production was confirmed but which were unable to be quantified due to the absence of a standard; a trace amount; details: L-amino acid methyl ester hydrochloride 100 mM, pH 9.0, 25° C., 3 hours
Description: Ester specificity was examined in the case of using L-amino acid ester for the carboxy component. […] HCl represents hydrochloride in Table 4.
Peptide production was examined in the case of using L-alanine methyl ester for the carboxy component and using various L-amino acids for the amine component.
Peptide production was examined in the case of using various types of L-amino acid methyl esters for the carboxy component and using L-glutamine for the amine component. […] Furthermore, Tween-80 was added to the reaction system to a final concentration of 0.1% in the case of using L-Trp-OMe and L-Tyr-OMe.

[2] = tested on: enzyme derived from Sphingobacterium sp. strain FERM BP-8124; test: Substrate specificity of enzyme derived from Sphingobacterium sp.; assay type: biochemical; details: carboxy component 100 mM, 0.33 units enzyme, pH 9.0, 25° C., 1.5 hours
Sequence of enzyme derived from Sphingobacterium sp. strain FERM BP-8124 (as listed by the source): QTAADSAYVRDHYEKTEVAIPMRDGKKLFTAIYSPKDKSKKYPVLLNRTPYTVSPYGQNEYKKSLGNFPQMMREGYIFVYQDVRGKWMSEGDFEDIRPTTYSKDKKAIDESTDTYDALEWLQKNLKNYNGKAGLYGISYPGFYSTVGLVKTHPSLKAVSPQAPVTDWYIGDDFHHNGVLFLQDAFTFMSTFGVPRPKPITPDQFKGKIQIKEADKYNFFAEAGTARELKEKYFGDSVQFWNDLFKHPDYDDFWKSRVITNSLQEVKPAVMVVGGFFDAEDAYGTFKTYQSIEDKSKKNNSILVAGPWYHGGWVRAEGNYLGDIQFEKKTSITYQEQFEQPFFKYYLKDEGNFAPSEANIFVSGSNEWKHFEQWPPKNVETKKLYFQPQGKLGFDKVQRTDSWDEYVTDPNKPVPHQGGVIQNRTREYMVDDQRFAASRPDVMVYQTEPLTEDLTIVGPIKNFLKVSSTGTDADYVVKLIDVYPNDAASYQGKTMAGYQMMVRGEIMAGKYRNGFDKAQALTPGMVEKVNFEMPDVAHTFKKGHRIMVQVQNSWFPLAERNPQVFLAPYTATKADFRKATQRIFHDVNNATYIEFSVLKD

[3] = tested on: Empedobacter brevis strain FERM BP-8113 microbial cells; test: Production of peptide using microbial cells of Empedobacter brevis; assay type: cell-based; details: 1 mL 100 g/L cell suspension + 1 mL buffer with 200 mM carboxy component, 400 mM amino acid, 10 mM EDTA, pH 9.0, 18° C., 2 hours
Procedure: A 50 mL medium (pH 6.2) containing 5 grams (g) of glucose, 5 g of ammonium sulfate, 1 g of monopotassium phosphate, 3 g of dipotassium phosphate, 0.5 g of magnesium sulfate, 10 g of yeast extract and 10 g of peptone in 1 liter (L) was transferred to a 500 mL Sakaguchi flask and sterilized at 115° C. for 15 minutes.
Microbial cells were collected by centrifuging (10,000 rounds per minute (rpm), 15 minutes) the culture broth obtained in Example 1, followed by suspending them to a concentration of 100 g/L in 100 mM borate buffer (pH 9.0) containing 10 mM EDTA. After respectively adding 1 mL of the suspension to 1 mL each of 100 mM borate buffer solutions (pH 9.0) containing 10 mM EDTA, 200 mM of the following carboxy components, and 400 mM of the following amino acids to make a final volume of 2 mL, the reaction was carried out at 18° C. for 2 hours.

[4] = tested on: peptide-forming enzyme from Empedobacter brevis strain FERM BP-8113; test: Substrate specificity of enzyme (peptide production from carboxy and amine components); assay type: biochemical; details: L-amino acid amide hydrochloride 100 mM as carboxy component, L-amino acid 150 mM, pH 9.0, 25° C., 3 hours
[5] = Table 15-3, amine component 150 mM

| Substance | Formed peptide ([1]; 150 mM L-glutamine) [mM] | Produced peptide ([2]; Table 15-2, L-Gln 150 mM) [mM] | Formed peptide ([1]; L-amino acid 150 mM) [mM] | Produced peptide [2, 5] [mM] | other results |
| --- | --- | --- | --- | --- | --- |
| L-Gln-L-Gln | 0.3 | 0.1 | – | – | – |
| L-Ile-L-Gln | 8.4 | 6.4 | – | – | – |
| L-Ile-L-Met | – | – | 10.0 | 5.1 | Formed peptide [3]: 8.3 mM |
| L-Ile-L-Phe | – | – | 5.2 | 1.5 | – |
| L-Ile-L-Ser | – | – | 17.2 | 17.3 | – |
| L-Met-L-Gln | 12.0 | 32.6 | – | – | – |
| L-Met-L-Met | – | – | 25.0 | 28.4 | – |
| L-Met-L-Phe | – | – | 34.0 | 8.9 | Formed peptide [3]: 28.5 mM |
| L-Met-L-Ser | – | – | 12.8 | 25.3 | – |
| L-Phe-L-Gln | 0.9 | 0.8 | – | – | Formed peptide [4]: 0.2 mM |
| L-Pro-L-Gln | 2.2 | 1.8 | – | – | – |
| L-Ser-L-Gln | 24.0 | 12.9 | – | – | – |
| L-Ser-L-Met | – | – | 12.5 | 7.6 | – |
| L-Ser-L-Phe | – | – | 20.3 | 4.3 | – |
| L-Ser-L-Ser | – | – | 38.0 | 9.9 | Formed peptide [3]: 29.0 mM |
| L-Thr-Gly | – | – | 9.4 | 0.4 | – |
| L-Thr-L-Ala | – | – | 9.4 | 5.8 | – |
| L-Thr-L-Gln | 81.9 | 36.1 | – | – | Formed peptide [4]: 0.3 mM |
| L-Thr-L-Leu | – | – | 28.4 | 15.3 | Formed peptide [3]: 23.0 mM |
| L-Thr-L-Met | – | – | 38.6 | 28.9 | – |
| L-Thr-L-Val | – | – | 0.7 | 1.3 | – |
| L-Tyr-L-Gln | 3.4 | 0.6 | – | – | – |
| L-Val-L-Gln | 15.4 | 8.2 | – | – | – |
| L-Val-L-Met | – | – | 10.3 | 6.8 | Formed peptide [3]: 10.5 mM |
| L-Val-L-Phe | – | – | 6.1 | 1.0 | – |
| L-Val-L-Ser | – | – | 30.8 | 31.9 | – |
| α-L-Asp-L-Gln | – | 0.05 | – | – | Formed peptide (mM) ([1]; 150 mM L-glutamine): tr |
| γ-L-Glu-L-Gln | – | – | – | – | Formed peptide (mM) ([1]; 150 mM L-glutamine): + |
